# Patent publication US4753925A, “Antibacterial 1,7-diamino-1,4-dihydro-4-oxo-3-quinolinecarboxylic acids” (Bayer Aktiengesellschaft, priority 1984, dated 1988)
# How the values were obtained:
# strains of Table 1 = assay: MIC comparison over the strains of Table 1; type: cell-based; conditions: versus II
# Text: (§1) In most cases the values are identical, but for some strains they are about 2-4 times better.
# (§2) Agar dilution test/Isosensitest medium
# [1] = Serum levels in mice after oral administration; type: in vivo; conditions: mouse, 5 mg/kg, read-out: Serum level; for concentration at 0.25 h: 15'; for concentration at 0.5 h: 30'
# Text: as §1
# Serum levels in mice after oral administration
# [2] = Serum levels in mice following subcutaneous administration; type: in vivo; conditions: mouse, sc, 5 mg/kg, read-out: Serum level; for concentration at 0.25 h: 15'; for concentration at 0.5 h: 30'
# Experimental: as §1
# Serum levels in mice following subcutaneous
# administration of 5 mg/kg
# Klebsiella 6179 = assay: MIC, agar dilution test/Isosensitest medium; type: cell-based; conditions: agar dilution test, Isosensitest medium
# Text: as §1, §2
# Klebsiella 57 USA = assay: MIC, agar dilution test/Isosensitest medium; type: cell-based; conditions: agar dilution test, Isosensitest medium
# Text: as §1, §2
# Proteus mir. 8175 = assay: MIC, agar dilution test/Isosensitest medium; type: cell-based; conditions: agar dilution test, Isosensitest medium
# Text: as §1, §2
# Providencia 12052 = assay: MIC, agar dilution test/Isosensitest medium; type: cell-based; conditions: agar dilution test, Isosensitest medium
# Text: as §1, §2
# Pseudomonas W. = assay: MIC, agar dilution test/Isosensitest medium; type: cell-based; conditions: agar dilution test, Isosensitest medium
# Text: as §1, §2
# E. coli A 261 = assay: MIC, agar dilution test/Isosensitest medium; type: cell-based; conditions: Escherichia coli, A261, agar dilution test, Isosensitest medium
# Text: as §1, §2
# E. coli 455/7 = assay: MIC, agar dilution test/Isosensitest medium; type: cell-based; conditions: Escherichia coli, agar dilution test, Isosensitest medium
# Text: as §1, §2
# Proteus mir. 8223 = assay: MIC, agar dilution test/Isosensitest medium; type: cell-based; conditions: agar dilution test, Isosensitest medium
# Text: as §1, §2
# [3] = Pharmacokinetics in mice following oral and parenteral administration; type: in vivo; conditions: versus II
# Text: as §1
SMILES,MIC values compared with II: times better (strains of Table 1; for some strains),MIC values compared with II (strains of Table 1; in most cases),concentration at 0.25 h [1] [ng/mL],concentration at 0.5 h [1] [ng/mL],concentration at 1 h [1] [ng/mL],concentration at 2 h [1] [ng/mL],concentration at 0.25 h [2] [ng/mL],concentration at 0.5 h [2] [ng/mL],concentration at 1 h [2] [ng/mL],concentration at 2 h [2] [ng/mL],MIC (Klebsiella 6179) [µg/mL],MIC (Klebsiella 57 USA) [µg/mL],MIC (Proteus mir. 8175) [µg/mL],MIC (Providencia 12052) [µg/mL],MIC (Pseudomonas W.) [µg/mL],MIC (E. coli A 261) [µg/mL],MIC (E. coli 455/7) [µg/mL],MIC (Proteus mir. 8223) [µg/mL],Bioavailability compared with the comparison product ([3]; following oral and parenteral administration),"Serum levels compared with the comparison product ([3]; mice, oral and parenteral)"
CNn1cc(C(=O)O)c(=O)c2cc(F)c(N3CCN(C)CC3)c(F)c21 [Example 3],2-4 times,identical,900,1200,600,250,1200,1400,920,300,0.125,0.125,0.25,4,1,0.06,8,4,better bioavailability,higher serum levels
"CNn1cc(C(=O)O)c(=O)c2cc(F)c(N3CCN(C)CC3)cc21 [II, reference compound]",,,700,580,320,100,840,1300,450,100,0.25,0.25,0.125,16,1,0.06,8,4,,
